# Laboratory results reported in ChEMBL document CHEMBL4665836, “Overcoming β-Lactam resistance in Pseudomonas aeruginosa using non-canonical tobramycin-based antibiotic adjuvants” (2020).
# Legend:
# Type in all cases: functional
# Pseudomonas aeruginosa [1] = assay: Potentiation of ceftazidime-induced antibacterial activity against carbapenem-resistant Pseudomonas aeruginosa 107092 clinical isolate assessed as fold reduction in ceftazidime MIC at 8 uM
# Pseudomonas aeruginosa [2] = assay: Potentiation of ceftazidime-induced antibacterial activity against carbapenem-resistant Pseudomonas aeruginosa 108590 clinical isolate assessed as fold reduction in ceftazidime MIC at 8 uM
# Pseudomonas aeruginosa [3] = assay: Potentiation of aztreonam-induced antibacterial activity against carbapenem-resistant Pseudomonas aeruginosa 109084 clinical isolate assessed as fold reduction in aztreonam MIC at 8 uM
# Pseudomonas aeruginosa [4] = assay: Potentiation of ceftazidime-induced antibacterial activity against carbapenem-resistant Pseudomonas aeruginosa 109084 clinical isolate assessed as fold reduction in ceftazidime MIC at 8 uM
# Pseudomonas aeruginosa [5] = assay: Potentiation of aztreonam-induced antibacterial activity against carbapenem-resistant Pseudomonas aeruginosa 88949 clinical isolate assessed as fold reduction in aztreonam MIC at 8 uM
# Pseudomonas aeruginosa [6] = assay: Potentiation of aztreonam-induced antibacterial activity against carbapenem-resistant Pseudomonas aeruginosa 107092 clinical isolate assessed as fold reduction in aztreonam MIC at 8 uM
# Pseudomonas aeruginosa [7] = assay: Potentiation of aztreonam-induced antibacterial activity against carbapenem-resistant Pseudomonas aeruginosa 86052 clinical isolate assessed as fold reduction in aztreonam MIC at 8 uM
# Pseudomonas aeruginosa [8] = assay: Potentiation of ceftazidime-induced antibacterial activity against carbapenem-resistant Pseudomonas aeruginosa 86052 clinical isolate assessed as fold reduction in ceftazidime MIC at 8 uM
# Pseudomonas aeruginosa [9] = assay: Potentiation of ceftazidime-induced antibacterial activity against carbapenem-resistant Pseudomonas aeruginosa 88949 clinical isolate assessed as fold reduction in ceftazidime MIC at 8 uM
# Pseudomonas aeruginosa [10] = assay: Potentiation of aztreonam-induced antibacterial activity against carbapenem-resistant Pseudomonas aeruginosa 108590 clinical isolate assessed as fold reduction in aztreonam MIC at 8 uM
# Pseudomonas aeruginosa [11] = assay: Antibacterial activity against Pseudomonas aeruginosa PAO200 harboring mexAB-oprM efflux deficient mutant
# Pseudomonas aeruginosa [12] = assay: Antibacterial activity against Pseudomonas aeruginosa PAO750 harboring mexAB-oprM/mexCD-oprJ/mexEF-oprN/mexJK/mexXY/opmH efflux deficient mutant
# Pseudomonas aeruginosa [13] = assay: Potentiation of imipenem-induced antibacterial activity against carbapenem-resistant Pseudomonas aeruginosa 108590 clinical isolate assessed as fold reduction in imipenem MIC at 8 uM
# Pseudomonas aeruginosa [14] = assay: Potentiation of imipenem-induced antibacterial activity against carbapenem-resistant Pseudomonas aeruginosa 109084 clinical isolate assessed as fold reduction in imipenem MIC at 8 uM
# Pseudomonas aeruginosa [15] = assay: Potentiation of imipenem-induced antibacterial activity against carbapenem-resistant Pseudomonas aeruginosa 86052 clinical isolate assessed as fold reduction in imipenem MIC at 8 uM
# Pseudomonas aeruginosa [16] = assay: Potentiation of imipenem-induced antibacterial activity against carbapenem-resistant Pseudomonas aeruginosa 88949 clinical isolate assessed as fold reduction in imipenem MIC at 8 uM
# Pseudomonas aeruginosa [17] = assay: Potentiation of imipenem-induced antibacterial activity against carbapenem-resistant Pseudomonas aeruginosa 107092 clinical isolate assessed as fold reduction in imipenem MIC at 8 uM
# Pseudomonas aeruginosa [18] = assay: Antibacterial activity against wild type Pseudomonas aeruginosa PAO1
smiles,measurement,setting,value
NC(=O)[C@@H]1CC[C@@H]2CN1C(=O)N2OS(=O)(=O)O [AVIBACTAM],fold change (FC),Pseudomonas aeruginosa [1],2
same,fold change (FC),Pseudomonas aeruginosa [2],2
same,fold change (FC),Pseudomonas aeruginosa [3],2
same,fold change (FC),Pseudomonas aeruginosa [4],2
same,fold change (FC),Pseudomonas aeruginosa [5],2
same,fold change (FC),Pseudomonas aeruginosa [6],2
same,fold change (FC),Pseudomonas aeruginosa [7],2
same,fold change (FC),Pseudomonas aeruginosa [8],2
same,fold change (FC),Pseudomonas aeruginosa [9],2
same,fold change (FC),Pseudomonas aeruginosa [10],2
O=C(O)c1cn(C2CC2)c2cc(N3CCNCC3)c(F)cc2c1=O [CIPROFLOXACIN],MIC,Pseudomonas aeruginosa [11],0.0156 µg/mL
same,MIC,Pseudomonas aeruginosa [12],0.0078 µg/mL
O.O=C(NC1CCNCC1)[C@@H]1CC[C@@H]2CN1C(=O)N2OS(=O)(=O)O [RELEBACTAM],fold change (FC),Pseudomonas aeruginosa [13],2
same,fold change (FC),Pseudomonas aeruginosa [14],2
same,fold change (FC),Pseudomonas aeruginosa [15],2
same,fold change (FC),Pseudomonas aeruginosa [16],2
same,fold change (FC),Pseudomonas aeruginosa [17],2
NC[C@H]1O[C@H](O[C@H]2[C@H](O)[C@@H](O[C@H]3O[C@H](CO)[C@@H](O)[C@H](N)[C@H]3O)[C@H](N)C[C@@H]2N)[C@H](N)C[C@@H]1O [TOBRAMYCIN],MIC,Pseudomonas aeruginosa [11],1 µg/mL
same,MIC,Pseudomonas aeruginosa [18],1 µg/mL
same,MIC,Pseudomonas aeruginosa [12],1 µg/mL
